Columns and labels:
Format in all cases: organism-based
Phaseolus vulgaris [1] = test: Phytotoxicity against Phaseolus vulgaris (dry bean) assessed as visual crop injury at 840 g a.i./ha applied pre-emergence measured at 14 days post-emergence relative to control; settings: in vivo, other, 336 h
Phaseolus vulgaris [2] = test: Phytotoxicity against Phaseolus vulgaris (dry bean) assessed as visual crop injury at 420 g a.i./ha applied pre-emergence measured at 28 days post-emergence relative to control; settings: in vivo, other, 672 h
Phaseolus vulgaris [3] = test: Phytotoxicity against Phaseolus vulgaris (Pinto dry beans) assessed as plant height at 840 g a.i./ha applied pre-emergence measured at 28 days post-emergence (reference value: 32 +/- 1 cm); settings: in vivo, other, 672 h
Phaseolus vulgaris [4] = test: Phytotoxicity against Phaseolus vulgaris (Otebo dry beans) assessed as plant height at 840 g a.i./ha applied pre-emergence measured at 28 days post-emergence (reference value: 31 +/- 2 cm); settings: in vivo, other, 672 h
Phaseolus vulgaris [5] = test: Phytotoxicity against Phaseolus vulgaris (Black dry beans) assessed as plant height at 840 g a.i./ha applied pre-emergence measured at 28 days post-emergence (reference value: 28 +/- 1 cm); settings: in vivo, other, 672 h
Phaseolus vulgaris [6] = test: Phytotoxicity against Phaseolus vulgaris (Yellow eye dry beans) assessed as plant height at 420 g a.i./ha applied pre-emergence measured at 28 days post-emergence (reference value: 33 +/- 1 cm); settings: in vivo, other, 672 h
Phaseolus vulgaris [7] = test: Phytotoxicity against Phaseolus vulgaris (Otebo dry beans) assessed as visual crop injury at 420 to 840 g a.i./ha applied pre-emergence measured at 28 days post-emergence relative to control; settings: in vivo, other, 672 h
Phaseolus vulgaris [8] = test: Phytotoxicity against Phaseolus vulgaris (Black dry beans) assessed as visual crop injury at 420 to 840 g a.i./ha applied pre-emergence measured at 28 days post-emergence relative to control; settings: in vivo, other, 672 h
Phaseolus vulgaris [9] = test: Phytotoxicity against Phaseolus vulgaris (Pinto dry beans) assessed as plant height at 420 g a.i./ha applied pre-emergence measured at 28 days post-emergence (reference value: 32 +/- 1 cm); settings: in vivo, other, 672 h
Phaseolus vulgaris [10] = test: Phytotoxicity against Phaseolus vulgaris (Brown dry beans) assessed as plant height at 420 g a.i./ha applied pre-emergence measured at 28 days post-emergence (reference value: 33 +/- 1 cm); settings: in vivo, other, 672 h
Phaseolus vulgaris [11] = test: Phytotoxicity against Phaseolus vulgaris (dry beans) assessed as change in seed moisture content at 420 to 840 g a.i./ha applied pre-emergence relative to control; settings: in vivo, other
Phaseolus vulgaris [12] = test: Phytotoxicity against Phaseolus vulgaris (Yellow eye dry beans) assessed as yield at 840 g a.i./ha applied pre-emergence (reference value: 2 +/- 0.1 tons/ha); settings: in vivo, other
Phaseolus vulgaris [13] = test: Phytotoxicity against Phaseolus vulgaris (Pinto dry beans) assessed as yield at 840 g a.i./ha applied pre-emergence (reference value: 3.1 +/- 0.1 tons/ha); settings: in vivo, other
Phaseolus vulgaris [14] = test: Phytotoxicity against Phaseolus vulgaris (Kidney dry beans) assessed as yield at 840 g a.i./ha applied pre-emergence (reference value: 1.9 +/- 0.1 tons/ha); settings: in vivo, other
Phaseolus vulgaris [15] = test: Phytotoxicity against Phaseolus vulgaris (Cranberry dry beans) assessed as reduction in yield at 840 g a.i./ha applied pre-emergence relative to control; set-up: scale not given: the % may be the effect or the level left; settings: in vivo, other
Phaseolus vulgaris [16] = test: Phytotoxicity against Phaseolus vulgaris (Brown dry beans) assessed as yield at 840 g a.i./ha applied pre-emergence (reference value: 2.3 +/- 0.1 tons/ha); settings: in vivo, other
Phaseolus vulgaris [17] = test: Phytotoxicity against Phaseolus vulgaris (Black dry beans) assessed as reduction in yield at 840 g a.i./ha applied pre-emergence relative to control; set-up: scale not given: the % may be the effect or the level left; settings: in vivo, other
Phaseolus vulgaris [18] = test: Phytotoxicity against Phaseolus vulgaris (Yellow eye dry beans) assessed as yield at 420 g a.i./ha applied pre-emergence (reference value: 2 +/- 0.1 tons/ha); settings: in vivo, other
Phaseolus vulgaris [19] = test: Phytotoxicity against Phaseolus vulgaris (White dry beans) assessed as yield at 420 g a.i./ha applied pre-emergence (reference value: 2.9 +/- 0.1 tons/ha); settings: in vivo, other
Phaseolus vulgaris [20] = test: Phytotoxicity against Phaseolus vulgaris (Kidney dry beans) assessed as yield at 420 g a.i./ha applied pre-emergence (reference value: 1.9 +/- 0.1 tons/ha); settings: in vivo, other
Phaseolus vulgaris [21] = test: Phytotoxicity against Phaseolus vulgaris (Cranberry dry beans) assessed as yield at 420 g a.i./ha applied pre-emergence (reference value: 2.7 +/- 0.1 tons/ha); settings: in vivo, other
Phaseolus vulgaris [22] = test: Phytotoxicity against Phaseolus vulgaris (Yellow eye dry beans) assessed as reduction in shoot dry weight at 840 g a.i./ha applied pre-emergence measured at 42 days post-emergence relative to control; set-up: scale not given: the % may be the effect or the level left; settings: in vivo, other, 1008 h
Phaseolus vulgaris [23] = test: Phytotoxicity against Phaseolus vulgaris (White dry beans) assessed as reduction in shoot dry weight at 840 g a.i./ha applied pre-emergence measured at 42 days post-emergence relative to control; set-up: scale not given: the % may be the effect or the level left; settings: in vivo, other, 1008 h
Phaseolus vulgaris [24] = test: Phytotoxicity against Phaseolus vulgaris (Pinto dry beans) assessed as shoot dry weight at 840 g a.i./ha applied pre-emergence measured at 42 days post-emergence (reference value: 134 +/- 11 g/m); settings: in vivo, other, 1008 h
Phaseolus vulgaris [25] = test: Phytotoxicity against Phaseolus vulgaris (Black dry beans) assessed as reduction in shoot dry weight at 840 g a.i./ha applied pre-emergence measured at 42 days post-emergence relative to control; set-up: scale not given: the % may be the effect or the level left; settings: in vivo, other, 1008 h
Phaseolus vulgaris [26] = test: Phytotoxicity against Phaseolus vulgaris (White dry beans) assessed as shoot dry weight at 420 g a.i./ha applied pre-emergence measured at 42 days post-emergence (reference value: 135 +/- 11 g/m); settings: in vivo, other, 1008 h
Phaseolus vulgaris [27] = test: Phytotoxicity against Phaseolus vulgaris (Otebo dry beans) assessed as shoot dry weight at 420 g a.i./ha applied pre-emergence measured at 42 days post-emergence (reference value: 156 +/- 10 g/m); settings: in vivo, other, 1008 h
Phaseolus vulgaris [28] = test: Phytotoxicity against Phaseolus vulgaris (Kidney dry beans) assessed as shoot dry weight at 420 g a.i./ha applied pre-emergence measured at 42 days post-emergence (reference value: 133 +/- 8 g/m); settings: in vivo, other, 1008 h
Phaseolus vulgaris [29] = test: Phytotoxicity against Phaseolus vulgaris (Black dry beans) assessed as shoot dry weight at 420 g a.i./ha applied pre-emergence measured at 42 days post-emergence (reference value: 136 +/- 9 g/m); settings: in vivo, other, 1008 h

Cc1nn(-c2cc(NS(C)(=O)=O)c(Cl)cc2Cl)c(=O)n1C(F)F [SULFENTRAZONE]
Activity (Phaseolus vulgaris [1]): 30% | Activity (Phaseolus vulgaris [2]): 7% | Activity (Phaseolus vulgaris [3]): 26 cm | Activity (Phaseolus vulgaris [4]): 23 cm | Activity (Phaseolus vulgaris [5]): 21 cm | Activity (Phaseolus vulgaris [6]): 31 cm | Activity (Phaseolus vulgaris [7]): 13.9% | Activity (Phaseolus vulgaris [8]): 16.6% | Activity (Phaseolus vulgaris [9]): 30 cm | Activity (Phaseolus vulgaris [10]): 31 cm | Activity (Phaseolus vulgaris [11]): Non-toxic | Crop_yield (Phaseolus vulgaris [12]): 1.4 tons/ha | Crop_yield (Phaseolus vulgaris [13]): 2.7 tons/ha | Crop_yield (Phaseolus vulgaris [14]): 1.6 tons/ha | Activity (Phaseolus vulgaris [15]): 44% | Crop_yield (Phaseolus vulgaris [16]): 2.1 tons/ha | Activity (Phaseolus vulgaris [17]): 47% | Crop_yield (Phaseolus vulgaris [18]): 2 tons/ha | Crop_yield (Phaseolus vulgaris [19]): 2.4 tons/ha | Crop_yield (Phaseolus vulgaris [20]): 1.9 tons/ha | Crop_yield (Phaseolus vulgaris [21]): 2.4 tons/ha | Activity (Phaseolus vulgaris [22]): 40% | Activity (Phaseolus vulgaris [23]): 30% | Activity (Phaseolus vulgaris [24]): 128 g/m | Activity (Phaseolus vulgaris [25]): 35% | Activity (Phaseolus vulgaris [26]): 130 g/m | Activity (Phaseolus vulgaris [27]): 157 g/m | Activity (Phaseolus vulgaris [28]): 128 g/m | Activity (Phaseolus vulgaris [29]): 111 g/m

Source: ChEMBL document CHEMBL3045522, “Responses of dry beans (Phaseolus vulgaris L.) to sulfentrazone” (Crop Prot, 2007)
